Experimental findings from patent publication US11104690B2, “Indazole derivatives useful as inhibitors of diacylglyceride O-acyltransferase 2” (Merck Sharp & Dohme Corp., priority 2016, dated 2021) are described below.

For orientation: IC50 means the midpoint of a concentration-inhibition curve.

Chain of Human DGAT2 (Q96PD7 whole entry): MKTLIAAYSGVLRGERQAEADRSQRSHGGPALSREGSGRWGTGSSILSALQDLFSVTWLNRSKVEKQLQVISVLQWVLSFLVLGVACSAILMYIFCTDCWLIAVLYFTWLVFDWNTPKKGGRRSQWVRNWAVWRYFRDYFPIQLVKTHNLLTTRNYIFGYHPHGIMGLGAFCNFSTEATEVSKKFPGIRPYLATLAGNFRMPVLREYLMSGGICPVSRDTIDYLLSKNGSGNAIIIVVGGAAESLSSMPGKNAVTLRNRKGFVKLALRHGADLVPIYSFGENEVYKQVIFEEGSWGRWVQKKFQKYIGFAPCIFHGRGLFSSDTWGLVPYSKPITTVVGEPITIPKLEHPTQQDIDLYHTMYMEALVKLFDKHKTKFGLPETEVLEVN

For this experiment, the target named is Human DGAT2 (Homo sapiens (Human), UniProt Q96PD7). In words: DGAT2 Enzymatic Activity Assay (triolein formation, LC/MS/MS). The class given is biochemical. The note with it: hDGAT2 Sf-9 membrane prep; 25 μM diolein, 10 μM oleoyl-CoA; room temperature. In short, it runs like this:
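Membranes from Sf-9 cells infected with untagged hDGAT2 baculovirus, 10 ng/μL, at room temperature in 100 mM Tris.Cl pH 7.0, 20 mM MgCl2, 5% ethanol with 25 μM diolein and 10 μM oleoyl-CoA. Triolein quantified by LC/MS/MS against spiked internal standard; IC50 from 4-parameter sigmoidal fit.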
`COC(=O)C1(NC(=O)c2ccc3c(-c4ccccc4Cl)nn(-c4ccc(F)cc4)c3c2)CC[S+]([O-])C1` (racemic) [Example 89, methyl 3-({[3-(2-chlorophenyl)-1-(4-fluorophenyl)-1H-indazol-6-yl]carbonyl}amino)tetra-hydrothiophene-3-carboxylate 1-oxide] had an IC50 of 125 nM. This lies in the sub-micromolar range.

Compound `Cn1nnc2ccc(-c3nn(-c4ccc(F)cc4)c4cc(C(=O)NC5(C)CCS(=O)(=O)C5)ccc34)cc21` (racemic) [Example 163, 1-(4-fluorophenyl)-3-(1-methyl-1H-benzotriazol-6-yl)-N-(3-methyl-1,1-dioxidotetrahydrothiophen-3-yl)-1H-indazole-6-carboxamide] showed an IC50 of 340 nM.

`O=C(NCC1(O)CC1)c1ccc2c(-c3ccccc3Cl)nn(-c3ccc(F)cc3)c2c1` [Example 114, 3-(2-chlorophenyl)-1-(4-fluorophenyl)-N-[(1-hydroxycyclopropyl)methyl]-1H-indazole-6-carboxamide] came in with a 50% inhibitory concentration (IC50) of 627 nM.

As to `CC1(NC(=O)c2ccc3c(-c4ccccc4Cl)nn(-c4ccc(F)cc4)c3c2)CCS(=O)(=O)C1` (single isomer, unassigned) [Example 1-A, 3-(2-Chlorophenyl)-1-(4-fluorophenyl)-N-(3-methyl-1,1-dioxidotetrahydrothiophen-3-yl)-1H-indazole-6-carboxamide], inhibition was half-maximal at 4.5 nM (IC50).

In turn, `O=C(NC1CCS(=O)(=O)C1)c1ccc2c(-c3cccc(C4CC4)c3)nn(-c3ccc(F)cn3)c2c1` (single isomer, unassigned) [Example 126-A, 3-(3-cyclopropylphenyl)-N-(1,1-dioxidotetrahydrothiophen-3-yl)-1-(5-fluoropyridin-2-yl)-1H-indazole-6-carboxamide] yielded an IC50 of 11 nM.

`O=C(NCc1cncnc1)c1ccc2c(-c3ccccc3Cl)nn(-c3ccc(F)cc3)c2c1` [Example 38, 3-(2-chlorophenyl)-1-(4-fluorophenyl)-N-(pyrimidin-5-ylmethyl)-1H-indazole-6-carboxamide]: the half-maximal inhibitory concentration (IC50) is 368 nM.

In turn, `CC(C)(C)NC(=O)c1ccc2c(-c3ccccc3Cl)nn(-c3ccc(F)cc3)c2c1` [Example 15, N-tert-butyl-3-(2-chlorophenyl)-1-(4-fluorophenyl)-1H-indazole-6-carboxamide] registered a 50% inhibitory concentration (IC50) of 77 nM.

In turn, `C[C@H](NC(=O)c1ccc2c(-c3ccccc3Cl)nn(-c3ccc(F)cc3)c2c1)c1cnc(C(F)(F)F)nc1` [Example 50, 3-(2-chlorophenyl)-1-(4-fluorophenyl)-N-{(1S)-1-[2-(trifluoromethyl)pyrimidin-5-yl]ethyl}-1H-indazole-6-carboxamide] returned an IC50 of 34 nM.

In turn, `CN1CC(NC(=O)c2ccc3c(-c4ccccc4Cl)nn(-c4ccc(F)cc4)c3c2)CC1=O` (racemic) [Example 22, 3-(2-chlorophenyl)-1-(4-fluorophenyl)-N-(1-methyl-5-oxopyrrolidin-3-yl)-1H-indazole-6-carboxamide] registered an IC50 of 102 nM. This IC50 is about 3-fold higher than that of the compound before.
